# Patent US8771611B2, “System and methods of log-scale concentration gradients” (Auburn University, priority 2011, dated 2014)
# Read-outs that look alike come from different tables or passages of the source.
# Tests used:
# [1] = target: matrix metalloproteases-9 (MMP-9) (Homo sapiens, UniProt P14780); assay: on-chip (microfluidic chip) logistic dose response of MMP-9 inhibitors, fluorogenic MMP substrate III; type: biochemical; conditions: for deviation in the IC50 values between on-chip and off-chip experiment: comparison on-chip vs off-chip; for IC50: on-chip, 22.15 μM substrate, 5 nM enzyme, inhibitor range 0.063 nM~250 nM, four parameter logistic fit, read-out: IC50 (on-chip, from dose response plots)
# From the text: Therefore, a concentration range of 0 to 1000×, in logarithmic scale, is able to be generated in a single experiment.
# To determine the kinetic parameters, KM and kcat, the initial velocities of the individual reactions are able to be curve-fitted with the Michaelis-Menten equation using the enzyme kinetics module of Sigmaplot software (Systat software Inc.). For IC50 values with standard error, and 95% confidence interval, the four parameter nonlinear-logistic-regression model available to the inhibition data are curve-fitted. The four parameter model is of the form as shown in the equation (1) below.
# [formula] Where, IC50 refers to median point of the concentration-response plot; [I] represents the concentration of inhibitor; h is the Hill coefficient or Hill slope, which means the steepness of dose-response plot; %I designates percentage inhibiting potency, including minimum and maximum.
# Therefore, by introducing the three concentrations of inhibitor and buffer, meaningful logarithmic concentrations for dose response are generated such as 0, 1, 2.5, 5, 7.5, 10, 25, 50, 75, 100, 250, 500, 750 and 1000× by the device disclosed herein in semi-direct dilution.
# An inhibitor concentration range of 0.063 nM˜250 nM (1:4000) is created on the chip in the 14 reactors. Note that, all the 14 reactors are used considering the requirement of a wider concentration range of inhibitors (FIG. 2D), 22.15 μM of substrate and 5 nM of enzyme are used, respectively.
# The substrate QXLTM520-Pro-Leu-Gly-Cys-(Me)-His-Ala-D-Arg-Lys-(5-carboxy-fluorescein)-NH2 (AnaSpec Inc), internally quenched peptide matrix of matrix metalloproteinases-9 (MMP-9) is used for the enzyme reaction. This substrate releases fluorescent signals through dissociation of the quencher (QXLTM520) and carboxyfluorescein (FAM), fluorophore, via proteolytic cleavage by enzymatic reaction. […] For establishing a standard curve, reference dye, FAM-Pro-Leu-OH is used. The excitation and emission wavelengths for FAM are 480 nm and 520 nm, respectively. According to the enzyme reaction types, 50 nM, 10 nM, and 5 nM of MMP-9 are separately dissolved into the reaction buffer (TCNBT; 50 mM Tris, 10 mM CaCl2, 150 mM NaCl, 0.05% Brij-35, 0.05% Tween-20 and 0.1% BSA at pH 7.5). For the substrate of MMP, a stock solution is prepared as 100 μM in TCNBT buffer. […] Prepared reagents are stored at −20 ° C. until dilution with TCNBT buffer for experiment.
# MMP-9 enzyme [2] = target: T1, MMP-9 enzyme (Homo sapiens, UniProt P14780); assay: off-chip experiment, IC50 of MMP-9 inhibitors; type: biochemical; conditions: read-out: IC50 from the off-chip experiment
# From the text: These deviations in the values of IC50 are acceptable, considering enzyme as a biological sample with variable properties.
# MMP-9 enzyme [3] = target: T1, MMP-9 enzyme; conditions: from some literature; read-out: reported IC50 values from literature; cited from earlier work
# T1 sequence (P14780 94-707): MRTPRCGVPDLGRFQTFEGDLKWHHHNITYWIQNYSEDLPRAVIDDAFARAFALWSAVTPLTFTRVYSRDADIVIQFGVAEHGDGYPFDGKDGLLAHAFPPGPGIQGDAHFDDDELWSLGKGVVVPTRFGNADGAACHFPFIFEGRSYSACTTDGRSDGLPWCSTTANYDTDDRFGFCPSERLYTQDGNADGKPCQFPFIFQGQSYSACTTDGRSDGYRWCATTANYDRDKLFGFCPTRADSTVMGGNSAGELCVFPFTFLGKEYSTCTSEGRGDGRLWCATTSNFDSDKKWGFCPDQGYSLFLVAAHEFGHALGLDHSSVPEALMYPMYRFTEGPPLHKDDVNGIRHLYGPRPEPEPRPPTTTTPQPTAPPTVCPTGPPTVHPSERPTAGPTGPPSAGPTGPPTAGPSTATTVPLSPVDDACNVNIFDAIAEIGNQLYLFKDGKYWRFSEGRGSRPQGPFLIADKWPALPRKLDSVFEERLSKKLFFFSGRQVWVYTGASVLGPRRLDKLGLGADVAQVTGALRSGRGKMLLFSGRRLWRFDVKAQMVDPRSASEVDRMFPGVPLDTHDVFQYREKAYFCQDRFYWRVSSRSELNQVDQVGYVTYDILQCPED
# Chain of matrix metalloproteases-9 (MMP-9) (P14780 94-707): as above
deviation in the IC50 values between on-chip and off-chip experiment [1],IC50 [1],IC50 (MMP-9 enzyme [2]),SMILES,IC50 (MMP-9 enzyme [3])
20%,11.9 ± 1 nM,14.9 ± 0.9 nM,CC(C)(NS(=O)(=O)c1ccc(Oc2ccc(F)cc2)cc1)C(=O)NO [CP417474],
,4.1 ± 0.2 nM,3.5 ± 0.3 nM,CNC(=O)[C@H](Cc1ccccc1)NC(=O)[C@H](CC(C)C)[C@H](CSc1cccs1)C(=O)NO [batimastat],3 to 4 nM
3.2%,,,CNC(=O)[C@@H](NC(=O)[C@H](CC(C)C)[C@H](O)C(=O)NO)C(C)(C)C [marimastat],
